# Reference: paper PMC6698794, “Catalytic Knockdown of miR-21 by Artificial Ribonuclease: Biological Performance in Tumor Model” (Frontiers in Pharmacology, 2019)
# Columns and labels:
# B16 cells = assay: In vitro invasiveness assay (xCELLigence, Matrigel-coated CIM-Plates); assay type: cell-based, mouse; settings: 1 µM with Lipofectamine; compared with Lipofectamine alone
# Experimental: (§1) B16 cells were pre-seeded (2 × 10^5 per well of 24-well plates) in DMEM/10% FBS a day before transfection. Medium was replaced with serum-free DMEM, prior to incubation for 4 h with h-ODN, 2′-OMe, Inh (hsa-miR-21 5 p inhibitor, Ambion, USA), miR-21-miRNase, or luc-POC, each (0.1 or 1 µM) pre-complexed with Lipofectamine (Thermo Fisher Scientific, USA) in Opti-MEM medium (Thermo Fisher Scientific, USA) according to manufacturer’s instructions, then cells were cultivated in fresh culture standard medium for 24–72 h.
# Real-time cell analysis (xCELLigence, ACEABiosciences, USA) used CIM-Plates held at 37°C under an atmosphere of 5% CO2. Top chamber wells were coated with Matrigel (20 µl per well, diluted 1:40 with cold serum-free DMEM) and allowed to polymerize (4 h at 37°C under 5% CO2) prior to cell seeding. Bottom chamber wells were filled with DMEM/10% FBS (160 µl each), prior to assembly of the chambers, when serum-free DMEM was added to the top wells (30 µl each) and equilibrated (1 h at 37°C under 5% CO2). At 4 h after transfection, B16 cells (4 × 10^4) were seeded into each top chamber well in serum-free DMEM and pre-incubated for 30 min at room temperature before monitoring (xCELLigence set to collect impedance data, reported as cell index at least once every 30 min).
# (§2) Figure 2 Biological effect of the miR-21-specific miRNase. (A) Apoptotic profile of B16 melanoma cells after transfection with miR-21-miRNase and control luc-POC. Cytofluorimetric analysis of cells after staining with Annexin V-FITC/PI 48 h after transfection with miRNase or luc-POC (1 µM) in complex with Lipofectamine2000. Q1—population of living cells; Q2—Annexin V-FITC+/PI-, early apoptosis; Q3—Annexin V-FITC+/PI+, late apoptosis; Q4—Annexin V-FITC-/PI+, necrosis. (B) Average percentage of apoptotic (early and late apoptosis) and necrotic B16 cell population. Data represent mean ± s.e. of four independent experiments.(C, D) Invasion activity of B16 cells after incubation with Lipofectamine (LF) alone or treated with either hairpin antisense oligonucleotide (h-ODN), hairpin 2′-OMe oligonucleotide (2′-OMe), commercial miR-21 inhibitor (Inh), miR-21-miRNase, and control conjugate (luc-POC) in the concentration of 1 µM. Migration of cells was recorded in real time using the xCELLigence cell analysis system. Control—B16 cells without treatment. Data represent mean ± s.d. of four independent experiments.
# RLS40 lymphosarcoma [1] = assay: Hepatic index of mice implanted with treated RLS40 cells; assay type: in vivo; settings: cells treated with 1 µM; (liver weight/mouse weight) × 100%; 5.0% for healthy CBA mice; Mean ± SE
# Experimental: (§3) RLS40 ascites were taken from CBA mice intraperitoneally injected with tumor cells (2 × 10^6 in 0.2 ml buffered saline) into their abdominal cavities. RLS40 cells, isolated from ascites fluid by filtration through LSM were divided into seven portions: 1) untreated cells; 2) the cells incubated with Lipofectamine; the cells transfected with 1 µM of 3) h-ODN, 4) 2′-OMe, 5) Inh, 6) miR-21-miRNase, or 7) luc-POC each. After 4 h of transfection, cell suspensions (0.1 ml, 2 × 10^6 cells) were intramuscularly inoculated into the right lower limb of CBA mice for solid tumor development. As soon as tumors began to be palpable, the tumor volumes were measured every 2–3 days using calipers. Tumor volumes were calculated as V = (π/6 × length × width × height). Hepatic index was estimated as (liver weight/mouse weight) × 100% and as 5.0% for healthy CBA mice. Tumor doubling time (DT) was estimated as DT = (t − t0) × ln 2/(ln V − ln V0), where (t − t0) indicates the length of time between two measurements of tumor size and V0 and V denote the tumor volume at two points of the measurement ([Ozono et al., 2004]).
# Supplementary Table 2. Hepatic indexes of mice implanted with RLS40 treated with antisense
# oligonucleotides, control luc-POC and miR-21-miRNase
# Type of treatment Hepatic index, %* p-value (vs control)
# * – Mean ± SE; s.i. – statistically insignificant
# Hepatic index was estimated as (liver weight/mouse weight) × 100% and as 5.0% for healthy CBA
# The MDR status of RLS40 may add to the burden on the liver, when this type of tumor
# metastasizes into the liver (Sen’kova et al., 2012). Ex vivo treatment of RLS40 cells by
# oligonucleotides and miRNase avoids the toxic effect of antisense oligonucleotides, their conjugates
# and transfection reagents directly on the tumor-bearing animal. This may allow consideration of
# whether the decrease of migration activity of tumor cells translated into reduced metastatic burden of
# RLS40 on the liver. Treatment of the cells seeding the tumor may not reduce migration and […]
# RLS40 lymphosarcoma [2] = assay: Tumor transplantation assay: RLS40 cells treated ex vivo, then inoculated intramuscularly; assay type: in vivo, CBA mice; settings: cells treated with 1 µM before transplantation
# Experimental: as §3
# Figure 3 Antitumor effect of miR-21-specific miRNase. (A) Retardation of RLS40 growth in vivo after treatment of RLS40 cells with antisense oligonucleotides, control conjugate (luc-POC), or miR-21-miRNase. (B) Tumor volume on day 19 after RLS40 transplantation. Mice were injected with RLS40 cells either without any treatment (w/t) or treated with Lipofectamine (LF), commercial miR-21 inhibitor at concentration 0.1 µM (Inh 0.1, recommended) and 1 µM (Inh 1, in accordance to concentration of miRNase used in the study), control conjugate (luc-POC, 1 µM), hairpin 2′OMe oligonucleotide (2′-OMe, 1 µM), hairpin antisense oligonucleotide (h-ODN, 1 µM) or miR-21-specific miRNase (miR-21-miRNase, 1 µM). Data were statistically analyzed using two-way ANOVA with post hoc Tukey test. Data are presented as mean ± s.e. p-value indicates a statistically reliable difference. (C) Doubling time of RLS40 tumors after treatment with oligonucleotides and conjugates. TEXT PRINTED IN THE PICTURE: (C) untreated: DT, days: 2,45±0,49 | (C) LF: DT, days: 2,48±0,35 | (C) Inh 0.1: DT, days: 2,56±0,59 | (C) Inh 1: DT, days: 13,90±0,46 | (C) 2’-OMe: DT, days: 3,17±1,45 | (C) luc-POC: DT, days: 2,40±0,45 | (C) h-ODN: DT, days: 3,00±1,83 | (C) miR-21-miRNase: DT, days: 12,77±0,34
# B16 melanoma cells = assay: Annexin V-FITC/PI apoptosis assay; assay type: cell-based, mouse; settings: 1 µM with Lipofectamine; 24, 48, 72 h after transfection; maximum extent; flow cytometry
# Experimental: as §1
# At 24, 48, and 72 h after transfection, cells were harvested, washed twice with PBS, resuspended in Binding Buffer to a density of 2–5 × 10^5/ml, and incubated with annexin V-FITC and propidium iodide (PI) (ab14085, Abcam, UK) in the dark at room temperature for 15 min, prior to flow cytometry analysis (Novocyte CEA Biosciences, USA).
# as §2
# [3] = Nuclease resistance assay in DMEM with 10% fetal bovine serum; assay type: in vitro ADME; settings: 0.1 µg/µl, DMEM with 10% FBS, 37°C; 12% PAAG/8M urea gel, Stains-All
# Experimental: Oligonucleotides or conjugates (0.1 µg/µl) were incubated at 37°C in Dulbecco’s Modified Eagle Medium (DMEM) (Sigma, USA) with 10% fetal bovine serum (FBS; GE Healthcare, USA). Reactions were quenched in urea (8M) and immediately frozen in liquid nitrogen, prior to analysis of thawed samples in 12% PAAG/8M urea gels, using Tris-Borate-EDTA (TBE) as running buffer, Stains-All (MP Biomedicals, USA) and photographic gel documentation (VilberLourmat, France).
substance,measurement,setting,value
"acetyl-[(LeuArg)2Gly]2-aminohexyl-CGATAAATAACGCGСAAGTCAGCGAAAGCTGACTTG [luc-POC, control peptide-oligonucleotide conjugate; same hairpin, complementary part replaced by luciferase gene fragment]",Migration rate of transfected B16 cells (in words),B16 cells,almost the same rate as cells incubated with Lipofectamine
same,Hepatic index,RLS40 lymphosarcoma [1],5.56±0.11%
same,Tumor doubling time against w/t (in words),RLS40 lymphosarcoma [2],did not show a statistically significant difference
same,Tumor growth (in words),RLS40 lymphosarcoma [2],did not differ
same,Necrosis of melanoma B16 cells (Annexin V-FITC-/PI+),B16 melanoma cells,up to 6.5%
ODN: linear 14-mer deoxyribooligonucleotide TCAGTCTGATAAGC (unmodified DNA),Survival (intact) in serum-containing medium,[3],rapidly degraded
